Measurements published in article PMC10560666, “Four new triterpene saponins from Cephalaria speciosa and their potent cytotoxic and immunomodulatory activities” (Scientific Reports, 2023).
Marks after values point to notes of the source that are not given here.

Experiments:
[1] = system: CCD-34Lu normal human lung fibroblast cells; experiment: MTT cytotoxicity on CCD-34Lu healthy cells; format: cell-based; details: 48 h, mean ± standard deviation, n = 3, – = Not detected
Description: (§1) The human leukemia monocyte cell line (THP-1), human lung adenocarcinoma cell line (A549), human breast cancer cells (MDA-MB231), human prostate adenocarcinoma cells (PC3), human malignant glioma cell line (U87MG), human cervical gland carcinoma cells (HeLa), human hepatocellular carcinoma cells (HEP-G2) and normal human lung fibroblast cells (CCD-34-LU) as a healthy cell line in our stock used in this study were purchased from American Type Culture Collection (ATCC). THP-1 cells were cultured in Roswell Park Memorial Institute (RPMI 1640) medium and MDA-MB231, PC3, U87 MG, HeLa, HEP-G2, and CCD-34-LU cells cultivated in Dulbecco’s Modified Eagle’s Medium/Nutrient Mixture F-12 (DMEM/F12) (Gibco, USA) medium supplemented with 10% FBS (Gibco, USA), 100U/mL of penicillin 100 µg/mL of streptomycin (Gibco, USA), and 2 mM L-glutamine (Gibco, USA).
(§2) Cytotoxicity of saponins (1–4) and their prosapogenins (2a–4a) were tested against A549, MDA-MB-231, PC-3, U87MG, HeLa, HepG-2 cancer cells and CCD34-Lu healthy cell line using MTT [3-(4,5-dimethylthiazole-2-yl)-2,5-diphenyltetrazolium bromide)] assay (Acros Organics, New Jersey, USA)[11], [23]. For this purpose, 1 × 10^5 cells/mL of all the cell lines were seeded in 96-well plates (Corning, USA) and cultivated in the at 37 °C overnight. After the incubation, the cells were incubated with different concentrations of saponins (50, 5, and 0.5 µg/mL), and doxorubicin (Sigma, USA) (20, 2, and 0.2 µg/mL) for 48 h at 37 °C. Then, the MTT was added as 20 μL (from the stock concentration of 2.5 mg/mL) to all wells and further incubated for 4 h at 37 °C. Following the incubation, the medium was removed and 150 µL DMSO was added to dissolve the formed formazan crystals. After the formazan crystals were completely dissolved, the optical density (OD) was measured at 570 nm with an UV/Vis microplate spectrophotometer (Thermo Fisher Scientific, USA). All data are the results of at least three independent experiments carried out in triplicate. Data are presented as mean ± standard error of the mean (SEM) of samples. The IC50 value was calculated using the GraphPad Prism 8 (USA) program based on the calculated percent viability values and absorbance values. The percentage of viability was determined by Eq. (1):1 %Viablecells=absorbanceoftreatedcells-absorbanceofblank/absorbanceofcontrol-absorbanceofblank×100

[2] = system: THP-1 derived macrophage cells; experiment: Macrophage polarization by flow cytometry (CD11b, CD80, CD163 MFI); format: cell-based, human; details: saponin 3 µg/mL, 24 h, PMA-differentiated THP-1, mean ± SD, n = 3
Description: To differentiate THP-1 cells into M0-THP-1, cells were seeded at an initial concentration of 1 × 10^6 cells/mL in 6-well plates (Corning, USA) and treated with 15 ng/mL phorbol 12-myristate 13—acetate (PMA, Sigma USA). Then incubate at 5% CO2, 37 °C for 48 h[24]. To evaluate the potential of saponins with/without infectious bronchitis virus (IBV) D274 antigen on macrophage polarization, THP-1 cells were treated with saponins at 3 µg/mL and then incubated for 24 h with or without 4 µL of inactivated IBV D274 antigens (final titer of 1 HA). […] Based on the results of our previous research, the saponin concentration was selected as a non-cytotoxic concentration. At the end of the incubation period, the cells were collected by trypsinization and washed three times with PBS. Following, 1 µL of PE anti-human CD80 (Biolegend, CA), FITC anti-human CD163 (Biolegend, CA), and FITC anti-human CD11b (Biolegend, CA) antibodies were added into the cells pellet and incubated for 45 min at room temperature in the dark. The cells pellets underwent two PBS washes following incubation. Finally, the cells were subsequently analyzed by flow cytometry (BD Accuri, C5). 1 × 10^4 cells were counted for each sample group using flow cytometry. All data are the results of at least three independent experiments carried out in triplicate. Data are presented as mean ± standard error of the mean (SEM) of samples. The untreated stained macrophage cells with anti-human CD80, FITC anti-human CD163, and FITC anti-human CD11b were compared with the results of treated cells to obtain from M0 polarization to M1 and M2 or both.
Figure 2 (a) Saponins without antigen treatment, (b) Saponins treated with antigen. THP-1 cells were treated with 15 ng/ml PMA and 3 µg/ml saponins and 1 HA titer of IBV D274 induced in the saponins with antigen group for 24 h incubation. The macrophage polarization was determined with flow cytometry. Each value represents the mean ± standard deviation of three independents measurements. (P < 0.05*, P < 0.01**, P < 0.001***).

[3] = system: HepG-2 human hepatocellular carcinoma cells; experiment: MTT cytotoxicity on HepG-2; format: cell-based; details: mean ± standard deviation, n = 3, – = Not detected
Description: as §1, §2

[4] = system: THP-1 originated-macrophage; experiment: MTT cytotoxicity on THP-1 originated macrophages; format: cell-based, human; details: mean ± standard deviation, n = 3, – = Not detected
[5] = system: MDA-MB-231 human breast cancer cells; experiment: MTT cytotoxicity on MDA-MB-231; format: cell-based; details: mean ± standard deviation, n = 3, – = Not detected
Description: as §1, §2

[6] = system: U87MG human malignant glioma cell line; experiment: MTT cytotoxicity on U87MG; format: cell-based; details: 48 h, mean ± standard deviation, n = 3, – = Not detected
Description: as §1, §2

[7] = system: A549 human lung adenocarcinoma cell line; experiment: MTT cytotoxicity on A549; format: cell-based; details: mean ± standard deviation, n = 3, – = Not detected
Description: as §1, §2

[8] = system: PC-3 human prostate adenocarcinoma cells; experiment: MTT cytotoxicity on PC-3; format: cell-based; details: 48 h, mean ± standard deviation, n = 3, – = Not detected
Description: as §1, §2

[9] = system: HeLa human cervical gland carcinoma cells; experiment: MTT cytotoxicity on HeLa; format: cell-based; details: 48 h, mean ± standard deviation, n = 3, – = Not detected
Description: as §1, §2

[10] = with inactivated IBV D274 antigen (1 HA)

C[C@@H]1O[C@@H](O[C@H]2[C@H](O[C@H]3CC[C@@]4(C)[C@@H](CC[C@]5(C)[C@@H]4CC=C4[C@@H]6CC(C)(C)CC[C@]6(C(=O)O)CC[C@]45C)[C@]3(C)CO)O[C@H](CO)[C@H](O)[C@@H]2O)[C@H](O)[C@H](O)[C@H]1O [Compound 4a, 3-O-α-L-rhamopyranosyl-(1 → 2)-β-D-galactopyranosyl hederagenin]
IC50 [1]: > 64 µM | MFI of CD 11b (M0 marker) [2, 10]: 30,124.70 ± 913.74 | MFI of CD80 (M1 marker) [2, 10]: 4604.40 ± 128.49 | MFI of CD 11b (M0 marker) ([2]; without antigen): 30,031.76 ± 1486.58 | MFI of CD80 (M1 marker) ([2]; without antigen): 4,552.00 ± 947.76 | IC50 ([3]; 48 h): > 64 µM | IC50 ([4]; 48 h): 35.7 ± 4.9 µM | IC50 ([5]; 48 h): 8.43 ± 0.15 µM | IC50 [6]: > 64 µM | IC50 ([7]; 48 h): 8.13 ± 0.01 µM | IC50 [8]: > 64 µM | IC50 [9]: 16.3 ± 4.75 µM

C[C@@H]1O[C@@H](O[C@H]2[C@H](O[C@H]3CC[C@@]4(C)C(CC[C@]5(C)C4CC=C4C6CC(C)(C)CC[C@]6(C(=O)O[C@@H]6O[C@H](CO[C@@H]7O[C@H](CO)[C@@H](O)[C@H](O)[C@H]7O)[C@@H](O)[C@H](O)[C@H]6O)CC[C@]45C)[C@]3(C)CO)O[C@H](CO)[C@H](O)[C@@H]2O)[C@H](O)[C@H](O)[C@H]1O (stereo partly drawn) [Compound 4, 3-O-α-L-rhamnopyranosyl-(1 → 2)-β-D-galactopyranosyl-hederagenin-28-O-β-D-glucopyranosyl-(1 → 6)-β-D-glucopyranosyl ester]
IC50 ([1]; Homo sapiens, Fibroblast): > 45.2 µM | MFI of CD 11b (M0 marker) [2, 10]: 32,925.30 ± 947.75 | MFI of CD80 (M1 marker) [2, 10]: 4593.32 ± 951.60 | MFI of CD163 (M2 marker) [2, 10]: 8203.00 ± 246.09** | MFI of CD 11b (M0 marker) ([2]; without antigen): 27,324.70 ± 2398.39 | MFI of CD80 (M1 marker) ([2]; without antigen): 4,380.00 ± 169.38 | MFI of CD163 (M2 marker) ([2]; without antigen): 6,755.64 ± 206.67** | IC50 ([3]; Homo sapiens, HepG2, 48 h): > 45.2 µM | IC50 ([4]; Homo sapiens, THP-1, 48 h): > 45.2 µM | IC50 ([5]; Homo sapiens, MDA-MB-231, 48 h): > 45.2 µM | IC50 ([6]; Homo sapiens, U-87 MG): > 45.2 µM | IC50 ([7]; Homo sapiens, A549, 48 h): > 45.2 µM | IC50 ([8]; Homo sapiens): > 45.2 µM | IC50 ([9]; Homo sapiens, HeLa): > 45.2 µM

C[C@@H]1O[C@@H](O[C@H]2[C@H](O[C@H]3CC[C@@]4(C)C(CC[C@]5(C)C4CC=C4C6CC(C)(C)CC[C@]6(C(=O)O[C@@H]6O[C@H](CO[C@@H]7O[C@H](CO)[C@@H](O)[C@H](O)[C@H]7O)[C@@H](O)[C@H](O)[C@H]6O)CC[C@]45C)[C@]3(C)CO)OC[C@@H](O)[C@@H]2O)[C@H](O)[C@H](O)[C@H]1O (stereo partly drawn) [Compound 3, 3-O-α-L-rhamnopyranosyl-(1 → 2)-β-D-xylopyranosyl-hederagenin-28-O-β-D-glucopyranosyl-(1 → 6)-β-D-glucopyranosyl ester]
IC50 ([1]; Homo sapiens, Fibroblast): > 46.5 µM | MFI of CD 11b (M0 marker) [2, 10]: 29,545.10 ± 906.36 | MFI of CD80 (M1 marker) [2, 10]: 4564.51 ± 138.81 | MFI of CD163 (M2 marker) [2, 10]: 8303.34 ± 245.1** | MFI of CD 11b (M0 marker) ([2]; without antigen): 28,092.69 ± 1435.47 | MFI of CD80 (M1 marker) ([2]; without antigen): 4,549.73 ± 913.74 | MFI of CD163 (M2 marker) ([2]; without antigen): 6,655.82 ± 206.67* | IC50 ([3]; Homo sapiens, HepG2, 48 h): > 46.5 µM | IC50 ([4]; Homo sapiens, THP-1, 48 h): > 46.5 µM | IC50 ([5]; Homo sapiens, MDA-MB-231, 48 h): > 46.5 µM | IC50 ([6]; Homo sapiens, U-87 MG): > 46.5 µM | IC50 ([7]; Homo sapiens, A549, 48 h): > 46.5 µM | IC50 ([8]; Homo sapiens): > 46.5 µM | IC50 ([9]; Homo sapiens, HeLa): > 46.5 µM
